# Results taken from patent US12091426B2, “Bifunctional degraders of hematopoietic progenitor kinase and therapeutic uses thereof” (Nurix Therapeutics, Inc., priority 2021, dated 2024).
# Target: T1, HPK1 (Homo sapiens, UniProt Q92918)
# T1 construct: A HiBiT tag was introduced by CRISPR on the N terminus of HPK1 in Jurkat cells; host or cells: Jurkat cells (ATCC TIB-152), monoclonal line with CRISPR knock-in of HiBiT at the endogenous HPK1 locus
# Assay: HPK1 Cellular HiBit Degradation Assay
# Format: cell-based
# Conditions: HiBiT HPK1 Jurkat cells, 24 hrs; for DC50: concentration at which 50% of HPK1 was remaining, read-out: DC50 Category; for Dmax: Jurkat, maximum degradation vs DMSO vehicle control, read-out: Dmax Category
# Summary of the method: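 HPK1 levels are read by HiBiT luminescence after 24 h exposure of HiBiT-knock-in Jurkat cells to compound at 10 uM–0.1 nM final (11 points). Relative to DMSO (100%), DC50 is the concentration leaving 50% HPK1 from a variable-slope fit, and Dmax is 100 minus minimum remaining. Viability checked in-plate.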
# T1 sequence (Q92918 whole entry): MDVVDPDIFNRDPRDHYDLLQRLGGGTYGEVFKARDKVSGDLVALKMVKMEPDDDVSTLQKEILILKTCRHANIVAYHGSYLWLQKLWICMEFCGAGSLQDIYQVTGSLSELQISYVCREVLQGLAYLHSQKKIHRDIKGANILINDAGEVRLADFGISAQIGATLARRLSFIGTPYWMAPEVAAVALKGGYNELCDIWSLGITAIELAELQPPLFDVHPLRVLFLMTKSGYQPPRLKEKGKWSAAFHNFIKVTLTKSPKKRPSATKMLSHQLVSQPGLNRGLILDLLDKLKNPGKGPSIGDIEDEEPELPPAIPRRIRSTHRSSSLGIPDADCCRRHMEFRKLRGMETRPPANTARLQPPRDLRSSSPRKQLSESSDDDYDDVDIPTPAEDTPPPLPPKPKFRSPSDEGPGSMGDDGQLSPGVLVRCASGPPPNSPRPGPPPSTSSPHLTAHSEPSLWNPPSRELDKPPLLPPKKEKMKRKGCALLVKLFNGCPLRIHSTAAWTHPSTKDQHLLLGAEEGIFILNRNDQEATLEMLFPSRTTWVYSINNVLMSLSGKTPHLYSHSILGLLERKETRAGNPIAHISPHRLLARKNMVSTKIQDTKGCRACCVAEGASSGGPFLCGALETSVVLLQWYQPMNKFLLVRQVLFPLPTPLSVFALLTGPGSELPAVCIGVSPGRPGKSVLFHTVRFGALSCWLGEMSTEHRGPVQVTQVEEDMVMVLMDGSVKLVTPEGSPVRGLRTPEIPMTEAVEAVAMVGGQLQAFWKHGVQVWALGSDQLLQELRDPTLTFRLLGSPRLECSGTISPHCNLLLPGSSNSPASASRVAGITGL
SMILES,DC50 [nM],Dmax [%]
"CC(C)n1cnc2cc(-c3ccc4c(c3)N([C@H]3C[C@@H](N5CCCCC5)C3)C(=O)C43CCN(C(=O)C4(C)CCN(C(=O)C5CCN(c6ccc(N7CCC(=O)NC7=O)cc6)CC5)CC4)CC3)nc(NC3CC3)c21 [Example 211, 1-(4-{4-[4-({6-[4-(cyclopropylamino)-3-(propan-2-yl)-3H-imidazo[4,5-c]pyridin-6-yl]-2-oxo-1-[(1S,3S)-3-(piperidin-1-yl)cyclobutyl]-1,2-dihydrospiro[indole-3,4′-piperidin]-1′-yl}carbonyl)-4-methylpiperidine-1-carbonyl]piperidin-1-yl}phenyl)-1,3-diazinane-2,4-dione]",< 100,70 to 85
"CC(C)n1cnc2cc(-c3ccc4c(c3)N([C@H]3C[C@@H](N5CCCCC5)C3)C(=O)C43CCN(C(=O)C4CC45CCN(C(=O)C4CCN(c6ccc(C7CCC(=O)NC7=O)cn6)CC4)C5)CC3)nc(NC3CC3)c21 (mixture of isomers) [Example 303, (3RS)-3-(6-{4-[1-({6-[4-(cyclopropylamino)-3-(propan-2-yl)-3H-imidazo[4,5-c]pyridin-6-yl]-2-oxo-1-[(1S,3S)-3-(piperidin-1-yl)cyclobutyl]-1,2-dihydrospiro[indole-3,4′-piperidin]-1′-yl}carbonyl)-5-azaspiro[2.4]heptane-5-carbonyl]piperidin-1-yl}pyridin-3-yl)piperidine-2,6-dione]",500 to 1000,50 to 70
"CC(C)n1cnc2cc(-c3ccc4c(c3)N([C@H]3C[C@@H](N5CCCCC5)C3)C(=O)C43CCN(C(=O)C4CC5CCC(C4)N5C(=O)C4CCN(c5ccc(C6CCC(=O)NC6=O)cc5)CC4)CC3)nc(NC3CC3)c21 (mixture of isomers) [Example 289, (3RS)-3-(4-{4-[3-({6-[4-(cyclopropylamino)-3-(propan-2-yl)-3H-imidazo[4,5-c]pyridin-6-yl]-2-oxo-1-[(1S,3S)-3-(piperidin-1-yl)cyclobutyl]-1,2-dihydrospiro[indole-3,4′-piperidin]-1′-yl}carbonyl)-8-azabicyclo[3.2.1]Octane-8-carbonyl]piperidin-1-yl}phenyl)piperidine-2,6-dione]",< 100,70 to 85
"CC(C)n1cnc2cc(-c3ccc4c(c3)N([C@H]3C[C@@H](N5CCCCC5)C3)C(=O)C43CCN(C(=O)C4CCN(C(=O)C5CCN(c6ccc(C7CCC(=O)NC7=O)cn6)CC5)CC4)CC3)nc(Nc3ccncc3F)c21 (mixture of isomers) [Example 77, (3RS)-3-[6-(4-{4-[(6-{4-[(3-Fluoropyridin-4-yl)amino]-3-(propan-2-yl)-3H-imidazo[4,5-c]pyridin-6-yl}-2-oxo-1-[(1S,3S)-3-(piperidin-1-yl)cyclobutyl]-1,2-dihydrospiro[indole-3,4′-piperidin]-1′-yl)carbonyl]piperidine-1-carbonyl}piperidin-1-yl)pyridin-3-yl]piperidine-2,6-dione]",< 100,70 to 85
"CC(C)n1cnc2cc(-c3ccc4c(c3)N([C@H]3C[C@@H](N5CCCCC5)C3)C(=O)C43CCN(C(=O)C4CCN(C(=O)[C@H]5CC[C@H](Nc6ccc(C7CCC(=O)NC7=O)cc6)CC5)CC4)CC3)nc(Nc3ccccc3F)c21 (mixture of isomers) [Example 54, (3RS)-3-(4-{[(1R,4R)-4-{4-[(6-{4-[(2-fluorophenyl)amino]-3-(propan-2-yl)-3H-imidazo[4,5-c]pyridin-6-yl}-2-oxo-1-[(1S,3S)-3-(piperidin-1-yl)cyclobutyl]-1,2-dihydrospiro[indole-3,4′-piperidin]-1′-yl)carbonyl]piperidine-1-carbonyl}cyclohexyl]amino}phenyl)piperidine-2,6-dione]",< 100,70 to 85
"CC(C)n1cnc2cc(-c3ccc4c(c3)N([C@H]3C[C@@H](N5CCCCC5)C3)C(=O)C43CCN(C(=O)C4CCN(C(=O)[C@H]5CC[C@H](n6cc7cc(C8CCC(=O)NC8=O)ccc7n6)CC5)CC4)CC3)nc(NC3CC3)c21 (stereo partly drawn) [Example 179, 3-{2-[(1R,4R)-4-[4-({6-[4-(cyclopropylamino)-3-(propan-2-yl)-3H-imidazo[4,5-c]pyridin-6-yl]-2-oxo-1-[(1S,3S)-3-(piperidin-1-yl)cyclobutyl]-1,2-dihydrospiro[indole-3,4′-piperidin]-1′-yl}carbonyl)piperidine-1-carbonyl]cyclohexyl]-2H-indazol-5-yl}piperidine-2,6-dione]",100 to 500,70 to 85
"CC(C)n1cnc2cc(-c3ccc4c(c3)N([C@H]3C[C@@H](N5CCOCC5)C3)C(=O)C43CCN(C(=O)C4(C)CCN(C(=O)C5CCN(c6ccc(C7CCC(=O)NC7=O)cn6)CC5)CC4)CC3)nc(NC3CC3)c21 (mixture of isomers) [Example 216, (3RS)-3-(6-{4-[4-({6-[4-(cyclopropylamino)-3-(propan-2-yl)-3H-imidazo[4,5-c]pyridin-6-yl]-2-oxo-1-[(1S,3S)-3-(MORPHOLIN-4-yl)cyclobutyl]-1,2-dihydrospiro[indole-3,4′-piperidin]-1′-yl}carbonyl)-4-methylpiperidine-1-carbonyl]piperidin-1-yl}pyridin-3-yl)piperidine-2,6-dione]",100 to 500,50 to 70
"CC(C)n1cnc2cc(-c3ccc4c(c3)N([C@H]3C[C@@H](N5CCCCC5)C3)C(=O)C43CCN(C(=O)C4C5CCC4CN(C(=O)C4CCN(c6ccc(C7CCC(=O)NC7=O)cn6)CC4)C5)CC3)nc(NC3CC3)c21 (mixture of isomers) [Example 284, (3RS)-3-(6-{4-[8-({6-[4-(cyclopropylamino)-3-(propan-2-yl)-3H-imidazo[4,5-c]pyridin-6-yl]-2-oxo-1-[(1S,3S)-3-(piperidin-1-yl)cyclobutyl]-1,2-dihydrospiro[indole-3,4′-piperidin]-1′-yl}carbonyl)-3-azabicyclo[3.2.1]Octane-3-carbonyl]piperidin-1-yl}pyridin-3-yl)piperidine-2,6-dione]",< 100,70 to 85
"CC(C)n1cnc2cc(-c3ccc4c(c3)N([C@H]3C[C@@H](N5CCCCC5)C3)C(=O)C43CCN(C(=O)[C@@H]4CCN(C(=O)[C@H]5CC[C@H](Oc6ccc(N7CCC(=O)NC7=O)cn6)CC5)C4)CC3)nc(Nc3ccncc3F)c21 [Example 22, 1-(6-{[(1R,4R)-4-[(3R)-3-[(6-{4-[(3-fluoropyridin-4-yl)amino]-3-(propan-2-yl)-3H-imidazo[4,5-c]pyridin-6-yl}-2-oxo-1-[(1S,3S)-3-(piperidin-1-yl)cyclobutyl]-1,2-dihydrospiro[indole-3,4′-piperidin]-1′-yl)carbonyl]pyrrolidine-1-carbonyl]cyclohexyl]oxy}pyridin-3-yl)-1,3-diazinane-2,4-dione]",< 100,70 to 85
"CC(C)n1cnc2cc(-c3ccc4c(c3)N([C@H]3C[C@@H](N5CCCCC5)C3)C(=O)C43CCN(C(=O)C4CCN(C(=O)CC5CCN(c6ccc(C7CCC(=O)NC7=O)cn6)CC5)CC4)CC3)nc(NC3CC3)c21 (mixture of isomers) [Example 93, (3RS)-3-[6-(4-{2-[4-({6-[4-(cyclopropylamino)-3-(propan-2-yl)-3H-imidazo[4,5-c]pyridin-6-yl]-2-oxo-1-[(1S,3S)-3-(piperidin-1-yl)cyclobutyl]-1,2-dihydrospiro[indole-3,4′-piperidin]-1′-yl}carbonyl)piperidin-1-yl]-2-oxoethyl}piperidin-1-yl)pyridin-3-yl]piperidine-2,6-dione]",< 100,50 to 70
"Cc1cc(N2CCC(C(=O)N3CCC(C)(C(=O)N4CCC5(CC4)C(=O)N([C@H]4C[C@@H](N6CCCCC6)C4)c4cc(-c6cc7ncn(C(C)C)c7c(NC7CC7)n6)ccc45)CC3)CC2)ccc1C1CCC(=O)NC1=O (mixture of isomers) [Example 227, (3RS)-3-(4-{4-[4-({6-[4-(cyclopropylamino)-3-(propan-2-yl)-3H-imidazo[4,5-c]pyridin-6-yl]-2-oxo-1-[(1S,3S)-3-(piperidin-1-yl)cyclobutyl]-1,2-dihydrospiro[indole-3,4′-piperidin]-1′-yl}carbonyl)-4-methylpiperidine-1-carbonyl]piperidin-1-yl}-2-methylphenyl)piperidine-2,6-dione]",100 to 500,70 to 85
"CC(C)n1cnc2cc(-c3ccc4c(c3)N([C@H]3C[C@@H](N5CCCCC5)C3)C(=O)C43CCN(C(=O)C4CCN(C(=O)CN5CCN(c6ccc(C7CCC(=O)NC7=O)cn6)CC5)CC4)CC3)nc(Nc3ccccc3F)c21 (mixture of isomers) [Example 95, (3RS)-3-{6-[4-(2-{4-[(6-{4-[(2-fluorophenyl)amino]-3-(propan-2-yl)-3H-imidazo[4,5-c]pyridin-6-yl}-2-oxo-1-[(1S,3S)-3-(piperidin-1-yl)cyclobutyl]-1,2-dihydrospiro[indole-3,4′-piperidin]-1′-yl)carbonyl]piperidin-1-yl}-2-oxoethyl)piperazin-1-yl]pyridin-3-yl}piperidine-2,6-dione]",< 100,70 to 85
"CC(C)n1cnc2cc(-c3ccc4c(c3)N([C@H]3C[C@@H](N5C6COCC5C6)C3)C(=O)C43CCN(C(=O)C4(C)CCN(C(=O)C5CCN(c6ccc(C7CCC(=O)NC7=O)cn6)CC5)CC4)CC3)nc(NC3CC3)c21 (mixture of isomers) [Example 218, (3RS)-3-(6-{4-[4-({6-[4-(cyclopropylamino)-3-(propan-2-yl)-3H-imidazo[4,5-c]pyridin-6-yl]-2-oxo-1-[(1S,3S)-3-{3-oxa-6-azabicyclo[3.1.1]heptan-6-yl}cyclobutyl]-1,2-dihydrospiro[indole-3,4′-piperidin]-1′-yl}carbonyl)-4-methylpiperidine-1-carbonyl]piperidin-1-yl}pyridin-3-yl)piperidine-2,6-dione]",100 to 500,50 to 70
CC(C)n1cnc2cc(-c3ccc4c(c3)N([C@H]3C[C@@H](N5CCCCC5)C3)C(=O)C43CCN(C(=O)C4(C)CCN(C(=O)[C@H]5CC[C@H](Oc6ccc(C7CCC(=O)NC7=O)cn6)CC5)CC4)CC3)nc(Nc3ccncc3F)c21 (mixture of isomers) [Example 106],< 100,70 to 85
